US11326126B2, “High performing, high impact bloom accord” (International Flavors & Fragrances Inc., priority 2016, dated 2022)

Experiments:
Assay in all cases: Antibacterial activity
Type in all cases: cell-based
[1] = test system: s. aureos; settings: against s. aureos
Description: (§1) The fragrance accords can contain antibacterial ingredients described above. See U.S. Pat. No. 6,495,512 for a list of suitable antibacterial ingredients.

[2] = test system: e. coli; settings: against e. coli
Description: as §1

[3] = test system: e. hirae; settings: against e. hirae
Description: as §1

Measured: antibacterial activity

COc1ccc(C)cc1 [1-methoxy-4-methylbenzene]
high antibacterial activity: all assays above

C=CC(C)(O)CCC=C(C)C (stereo not drawn) [3,7-dimethylocta-1,6-dien-3-ol]
high antibacterial activity: all assays above
